Data published in patent US9238657B2, “Cephalosporin having catechol group” (SHIONOGI & CO., LTD., priority 2008, dated 2016).
Converted amounts (≈) assume the structure as drawn. Like-named read-outs stand apart in the source and are kept apart here.

Columns and labels:
Experiment in all cases: Minimum Inhibitory Concentration (MIC), agar plate incubation
Type in all cases: cell-based
[1] = system: Stenotrophomonas maltophilia SR21970
Method: (§1) Measurement of Minimum Inhibitory Concentration (MIC, microg/ml) was conducted according to the standard method of the Japan Society for Chemotherapy, and the amount of bacteria for inoculation was 1000 cfu/spot, and sensitive disc medium was used as the test medium, and conducted using agar plate incubation.
(§2) In the tables, a unit of the values of inhibitory activity is microg/ml (μg/ml).
(§3) Bacterial strains described in the above tables and enzyme (beta-lactamase) produced thereby are explained in Table 7.

[2] = system: Pseudomonas aeruginosa SR24
Method: as §1, §2, §3

[3] = system: Pseudomonas aeruginosa SR27060
Method: as §1, §2, §3

[4] = system: Klebsiella pneumoniae ATCC 700603
Method: as §1, §2, §3

[5] = system: Acinetobacter baumannii SR24396
Method: as §1, §2, §3

[6] = Stenotrophomonas maltophilia, SR21970, read-out: Minimum Inhibitory Concentration (MIC)
[7] = Pseudomonas aeruginosa, SR24, read-out: Minimum Inhibitory Concentration (MIC)
[8] = Pseudomonas aeruginosa, SR27060, read-out: Minimum Inhibitory Concentration (MIC)
[9] = Klebsiella pneumoniae, ATCC700603, read-out: Minimum Inhibitory Concentration (MIC)
[10] = Acinetobacter baumannii, SR24396, read-out: Minimum Inhibitory Concentration (MIC)
[11] = Stenotrophomonas maltophilia SR21970 (L-1, MBL producer strain, carbapenem resistant), 1000 cfu/spot, sensitive disc medium, read-out: Minimum Inhibitory Concentration (MIC)
[12] = Pseudomonas aeruginosa SR24 (no enzyme, Ceftazidime sensitive strain), 1000 cfu/spot, sensitive disc medium, read-out: Minimum Inhibitory Concentration (MIC)
[13] = Pseudomonas aeruginosa SR27060 (IMP-1, MBL producer strain, carbapenem resistant), 1000 cfu/spot, sensitive disc medium, read-out: Minimum Inhibitory Concentration (MIC)
[14] = ATCC700603, Klebsiella pneumoniae ATCC 700603 (SHV-18, ESBL producer strain), 1000 cfu/spot, sensitive disc medium, read-out: Minimum Inhibitory Concentration (MIC)
[15] = Acinetobacter baumannii SR24396 (no enzyme), 1000 cfu/spot, sensitive disc medium, read-out: Minimum Inhibitory Concentration (MIC)

Row | Structure (SMILES) | MIC [1, 11] | MIC [2, 12] | MIC [3, 13] | MIC [4, 14] | MIC [5, 15] | MIC [1, 6] | MIC [2, 7] | MIC [3, 8] | MIC [4, 9] | MIC [5, 10]
1 | Nc1nc(/C(=N/O[C@H](C(=O)O)c2ccccc2)C(=O)N[C@@H]2C(=O)N3C(C(=O)[O-])=C(C[N+]4(CCNC(=O)c5ccc(O)c(O)c5Cl)CCCC4)CS[C@H]23)cs1 [II-3] |  |  |  |  |  | 1 µg/mL (≈ 1.25 µM) | 0.125 µg/mL (≈ 0.156 µM) | 0.5 µg/mL (≈ 0.625 µM) | 0.125 µg/mL (≈ 0.156 µM) | 0.25 µg/mL (≈ 0.312 µM)
2 | C[C@H](O/N=C(\C(=O)N[C@@H]1C(=O)N2C(C(=O)[O-])=C(C[N+]3(CCNC(=O)c4ccc(O)c(O)c4Cl)CCCCC3)CS[C@H]12)c1nc(N)sc1Cl)C(=O)[O-].[Na+] [Compound I-22] | 4 µg/mL | 0.063 µg/mL | 0.125 µg/mL | 0.125 µg/mL | 0.25 µg/mL |  |  |  |  | 
3 | C[C@H](O/N=C(\C(=O)N[C@@H]1C(=O)N2C(C(=O)[O-])=C(C[N+]3(CCNC(=O)c4ccc(O)c(O)c4Cl)CCCC3)CS[C@H]12)c1nc(N)sc1Cl)C(=O)[O-].[Na+] [Compound I-15] | 4 µg/mL | 0.063 µg/mL | 0.125 µg/mL | 0.125 µg/mL | 0.25 µg/mL |  |  |  |  | 
4 | CC(C)(O/N=C(\C(=O)N[C@@H]1C(=O)N2C(C(=O)[O-])=C(C[N+]3(CCNC(=O)c4ccc(O)c(O)c4Cl)CCCC3)CS[C@H]12)c1csc(N)n1)C(=O)O [Compound I-12] | 0.5 µg/mL (≈ 0.665 µM) | 0.063 µg/mL (≈ 0.0838 µM) | 0.125 µg/mL (≈ 0.166 µM) | 0.25 µg/mL (≈ 0.332 µM) | 0.25 µg/mL (≈ 0.332 µM) |  |  |  |  | 
5 | C[C@H](O/N=C(\C(=O)N[C@@H]1C(=O)N2C(C(=O)[O-])=C(C[N+]3(CCCNC(=O)c4ccc(O)c(O)c4)CCCC3)CS[C@H]12)c1nc(N)sc1Cl)C(=O)O [Compound I-26] |  | 0.125 µg/mL (≈ 0.166 µM) | 0.5 µg/mL (≈ 0.665 µM) | 0.5 µg/mL (≈ 0.665 µM) | 1 µg/mL (≈ 1.33 µM) |  |  |  |  | 
6 | CC(C)(O/N=C(\C(=O)N[C@@H]1C(=O)N2C(C(=O)O)=C(C[N+]3(CCNC(=O)c4ccc(O)c(O)c4)CCCC3)CS[C@H]12)c1csc(N)n1)C(=O)O [Compound I-2] |  | 0.063 µg/mL | 0.125 µg/mL | 0.25 µg/mL | 0.25 µg/mL |  |  |  |  | 
7 | CC(C)(O/N=C(\C(=O)N[C@@H]1C(=O)N2C(C(=O)O)=C(C[N+]3(CCNC(=O)c4cc(Cl)c(O)c(O)c4Cl)CCCC3)CS[C@H]12)c1csc(N)n1)C(=O)O [Compound I-3] |  | 0.031 µg/mL | 0.125 µg/mL | 0.125 µg/mL | 0.125 µg/mL |  |  |  |  | 
8 | CC(C)(O/N=C(\C(=O)N[C@@H]1C(=O)N2C(C(=O)[O-])=C(C[N+]3(CCNC(=O)c4ccc(O)c(O)c4Cl)CCCC3)CS[C@H]12)c1nsc(N)n1)C(=O)O [Compound I-1] | 0.5 µg/mL (≈ 0.664 µM) | 0.063 µg/mL (≈ 0.0836 µM) | 0.25 µg/mL (≈ 0.332 µM) | 0.5 µg/mL (≈ 0.664 µM) | 0.125 µg/mL (≈ 0.166 µM) |  |  |  |  | 
9 | COc1c(O)ccc(C(=O)NCC[N+]2(CC3=C(C(=O)[O-])N4C(=O)C(NC(=O)/C(=N\OC(C)(C)C(=O)O)c5csc(N)n5)C4SC3)CCCC2)c1Cl (centres unmarked) [Comparative Compound 1, reference compound] | 16 µg/mL (≈ 20.9 µM) | 4 µg/mL (≈ 5.22 µM) | 32 µg/mL (≈ 41.8 µM) | 16 µg/mL (≈ 20.9 µM) | 64 µg/mL (≈ 83.5 µM) |  |  |  |  | 
10 | C[C@@H](C[N+]1(CC2=C(C(=O)O)N3C(=O)[C@@H](NC(=O)/C(=N\OC(C)(C)C(=O)[O-])c4csc(N)n4)[C@H]3SC2)CCCC1)NC(=O)c1ccc(O)c(O)c1Cl [II-12] |  |  |  |  |  | 1 µg/mL (≈ 1.31 µM) | 0.063 µg/mL (≈ 0.0822 µM) | 0.25 µg/mL (≈ 0.326 µM) | 0.25 µg/mL (≈ 0.326 µM) | 0.25 µg/mL (≈ 0.326 µM)

The next lines start with results.

Row | MIC [1, 11] | MIC [2, 12] | MIC [3, 13] | MIC [4, 14] | MIC [5, 15] | Structure (SMILES) | MIC [1, 6] | MIC [2, 7] | MIC [3, 8] | MIC [4, 9] | MIC [5, 10]
11 | 0.5 µg/mL (≈ 0.653 µM) | 0.125 µg/mL (≈ 0.163 µM) | 0.25 µg/mL (≈ 0.326 µM) | 0.125 µg/mL (≈ 0.163 µM) | 0.25 µg/mL (≈ 0.326 µM) | CC(C)[C@H](O/N=C(\C(=O)N[C@@H]1C(=O)N2C(C(=O)[O-])=C(C[N+]3(CCNC(=O)c4ccc(O)c(O)c4Cl)CCCC3)CS[C@H]12)c1csc(N)n1)C(=O)O [II-23] |  |  |  |  | 
12 | 1 µg/mL (≈ 1.33 µM) | 0.063 µg/mL (≈ 0.084 µM) | 0.5 µg/mL (≈ 0.666 µM) | 0.25 µg/mL (≈ 0.333 µM) | 0.25 µg/mL (≈ 0.333 µM) | CC(C)(O/N=C(\C(=O)N[C@@H]1C(=O)N2C(C(=O)O)=C(C[N+]3(CCNC(=O)c4ccc(O)c(O)c4Cl)CC=CC3)CS[C@H]12)c1csc(N)n1)C(=O)[O-] [II-13] |  |  |  |  | 
13 | 0.5 µg/mL (≈ 0.666 µM) | 0.125 µg/mL (≈ 0.167 µM) | 0.25 µg/mL (≈ 0.333 µM) | 0.5 µg/mL (≈ 0.666 µM) | 0.125 µg/mL (≈ 0.167 µM) | Nc1nc(/C(=N/OC2(C(=O)[O-])CC2)C(=O)N[C@@H]2C(=O)N3C(C(=O)O)=C(C[N+]4(CCNC(=O)c5ccc(O)c(O)c5Cl)CCCC4)CS[C@H]23)cs1 [II-2] |  |  |  |  | 
